Measurements as given in ChEMBL document CHEMBL1121781, “Potential antitumor agents. 34. Quantitative relationships between DNA binding and molecular structure for 9-anilinoacridines substituted in the anilino ring” (J Med Chem, 1981).
Calls of active or inactive are those of the source. The rule behind the calls is not given here.

Key:
Nucleic Acid [1] = system: Nucleic Acid
Description: Association constant for binding to poly [d(A-T)]

Nucleic Acid [2] = system: Nucleic Acid; remark: listed apart in the source
Description: Association constant for binding to poly [d(G-C)]

Calf thymus DNA [3] = conditions: Bos taurus
Description: (§1) Inhibitory concentration against ethidium binding to DNA

Calf thymus DNA [4] = conditions: Bos taurus; remark: listed apart in the source
Description: as §1

Description for Mus musculus: Maximum percent increase in life span of mice
Description for physchem: Ionisation constant (pKa)

SMILES | Log K (Nucleic Acid [1]) | Log K (Nucleic Acid [2]) | pKa (physchem) | C50 (Calf thymus DNA [3]) [µM] | ILS (Mus musculus) | C50 (Calf thymus DNA [4]) [µM]
COc1ccc(Nc2c3ccccc3nc3ccccc23)cc1 | 6.12 | 6.08 | 7.94 | 7.4 | inactive | –
Clc1cccc(Nc2c3ccccc3nc3ccccc23)c1 | 6.02 | 6.02 | 6.76 | 11 | inactive | –
CCCCNc1ccc(Nc2c3ccccc3nc3ccccc23)cc1 | 6.45 | 6.39 | 8.24 | 1.6 | inactive | –
Ic1ccc(Nc2c3ccccc3nc3ccccc23)cc1 | 6.19 | 6.13 | 6.9 | 8.2 | inactive | –
CCCNc1ccc(Nc2c3ccccc3nc3ccccc23)cc1 | 6.35 | 6.28 | 8.25 | 2 | inactive | –
COc1cccc(Nc2c3ccccc3nc3ccccc23)c1 | 5.86 | 5.91 | 7.21 | 14 | inactive | –
CC(=O)c1ccc(Nc2c3ccccc3nc3ccccc23)cc1 | 5.87 | 5.89 | 6.12 | 14 | inactive | –
Clc1ccc(Nc2c3ccccc3nc3ccccc23)cc1 | 5.99 | 5.91 | 7.06 | 14 | inactive | –
O=[N+]([O-])c1cccc(Nc2c3ccccc3nc3ccccc23)c1 | 5.56 | 5.62 | 6.26 | 27 | inactive | –
Brc1ccc(Nc2c3ccccc3nc3ccccc23)cc1 | 6.02 | 5.98 | 7 | 11 | inactive | –
CNS(=O)(=O)c1ccc(Nc2c3ccccc3nc3ccccc23)cc1 | 5.82 | 5.85 | 6.02 | 16 | inactive | –
Oc1cccc(Nc2c3ccccc3nc3ccccc23)c1 | 6 | 6.1 | 7.3 | 8.2 | inactive | –
CCCCCCNc1ccc(Nc2c3ccccc3nc3ccccc23)cc1 | 6.43 | 6.38 | 8.24 | 1.6 | inactive | –
Fc1ccc(Nc2c3ccccc3nc3ccccc23)cc1 | 5.9 | 5.85 | 7.5 | 16 | inactive | –
CS(=O)(=O)c1ccc(Nc2c3ccccc3nc3ccccc23)cc1 | 5.86 | 5.88 | 5.81 | 14 | inactive | –
c1cncc(Nc2c3ccccc3nc3ccccc23)c1 | 5.75 | 5.96 | 6.46 | 13 | inactive | –
CNc1cccc(Nc2c3ccccc3nc3ccccc23)c1 | 6.11 | 6.01 | 7.61 | 7 | inactive | –

Now from value to molecule, other results behind:

Log K (Nucleic Acid [1]) | Log K (Nucleic Acid [2]) | pKa (physchem) | SMILES | C50 (Calf thymus DNA [3]) [µM] | ILS (Mus musculus) | C50 (Calf thymus DNA [4]) [µM]
5.33 | 5.27 | 6.47 | Ic1ccccc1Nc1c2ccccc2nc2ccccc12 | 126 | inactive | –
5.76 | 5.76 | 7.87 | Nc1ccccc1Nc1c2ccccc2nc2ccccc12 | 13 | inactive | –
5.59 | 5.65 | 6.84 | Fc1ccccc1Nc1c2ccccc2nc2ccccc12 | 27 | inactive | –
5.6 | 5.43 | 6.32 | c1ccc(Nc2c3ccccc3nc3ccccc23)nc1 | 42 | inactive | –
5.08 | 5.46 | 6.97 | CN(c1ccccc1Nc1c2ccccc2nc2ccccc12)S(C)(=O)=O | 37 | inactive | –
5.36 | 5.42 | 7.8 | Oc1ccccc1Nc1c2ccccc2nc2ccccc12 | 39 | inactive | –
5.2 | 5.08 | 7.85 | CCOc1ccccc1Nc1c2ccccc2nc2ccccc12 | 85 | inactive | –
5.25 | 5.23 | 7.76 | Cc1ccccc1Nc1c2ccccc2nc2ccccc12 | – | – | 67
5.86 | 5.85 | 7.46 | c1ccc(Nc2c3ccccc3nc3ccccc23)cc1 | 16 | inactive | –
5.35 | 5.32 | 6.41 | Brc1ccccc1Nc1c2ccccc2nc2ccccc12 | 58 | inactive | –
5.49 | 6.1 | 6.86 | CS(=O)(=O)Nc1ccccc1Nc1c2ccccc2nc2ccccc12 | 7.3 | inactive | –
5.47 | 5.41 | 6.3 | COC(=O)c1ccccc1Nc1c2ccccc2nc2ccccc12 | 40 | inactive | –
5.39 | 5.47 | 6.55 | Clc1ccccc1Nc1c2ccccc2nc2ccccc12 | 41 | inactive | –
5.18 | 5.15 | 7.68 | CCc1ccccc1Nc1c2ccccc2nc2ccccc12 | 83 | inactive | –
5.6 | 5.39 | 7.17 | CS(=O)(=O)NCc1ccccc1Nc1c2ccccc2nc2ccccc12 | 46 | inactive | –
6.09 | 5.9 | 7.52 | Cc1cccc(Nc2c3ccccc3nc3ccccc23)c1 | 15 | inactive | –
5.84 | 5.46 | 7.24 | CC(=O)Nc1ccccc1Nc1c2ccccc2nc2ccccc12 | 42 | inactive | –
5.23 | 5.09 | 7.62 | CC(C)(C)c1ccccc1Nc1c2ccccc2nc2ccccc12 | 100 | inactive | –
5.56 | 5.78 | 7.24 | COC(=O)Nc1ccccc1Nc1c2ccccc2nc2ccccc12 | 17 | inactive | –
5.08 | 4.92 | 7.64 | CC(C)c1ccccc1Nc1c2ccccc2nc2ccccc12 | 142 | inactive | –
